The text below walks through data of patent publication US20250026765A1, “SPIROHETEROCYCLE DERIVATIVE HAVING SEROTONIN RECEPTOR BINDING ACTIVITY” (Shionogi & Co., Ltd., priority 2021, published 2025).

Structures are written as SMILES. Where two headings read alike, the source gives them in different places. Some results are limits rather than exact numbers.

The target of data set [1] is human recombinant 5-HT2A receptor (Homo sapiens (Human), UniProt P28223). Put plainly: 5-HT2A receptor binding inhibition test ([3H]-Ketanserin). Conditions: Jump-In HEK cell membrane, 25° C. 1.5 hours. In short, it runs like this: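 Membranes from Jump-In HEK cells expressing the receptor were incubated with [3H]-ketanserin at about its Kd (from Scatchard analysis) in Tris-HCl pH 7.4 buffer for 1.5 h at 25° C, then filtered and counted. Non-specific binding was defined with 500 μmol/L serotonin, and Ki was taken from dose-response curves.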

The next data set deals with CYP3A4 (Homo sapiens (Human), UniProt P08684). Put plainly: CYP3A4 (MDZ) MBI test. It is filed as in vitro ADME. Conditions: pooled human liver microsomes, midazolam 1-hydroxylation, pre-reaction 0 or 30 minutes. On the procedure: Test Example 8: CYP3A4 (MDZ) MBI Test
This test is a test to evaluate mechanism based inhibition (MBI) potency from enhancement of CYP3A4 inhibition of the compound of the present invention by a metabolism reaction. CYP3A4 inhibition is evaluated using pooled human liver microsomes by 1-hydroxylation reaction of midazolam (MDZ) as a marker reaction.
The reaction conditions are as follows: substrate, 10 μmol/L MDZ; pre-reaction time, 0 or 30 minutes; reaction time, 2 minutes; reaction temperature, 37° C.; pooled human liver microsomes, at pre-reaction 0.5 mg/mL, at reaction 0.05 mg/mL (at 10-fold dilution); concentrations of the compound of the present invention, 0.83, 5, 10, 20 μmol/L (four points).
Pooled human liver microsomes and a solution of the compound of the present invention in K-Pi buffer (pH 7.4) as a pre-reaction solution are added to a 96-well plate at the composition of the pre-reaction. A part of pre-reaction solution is transferred to another 96-well plate, and 1/10 diluted by K-Pi buffer containing a substrate. NADPH as a co-factor is added to initiate a reaction as a marker reaction (without preincubation). After a predetermined time of a reaction, methanol/acetonitrile=1/1 (V/V) solution is added to stop the reaction. In addition, NADPH is added to a remaining pre-reaction solution to initiate a pre-reaction (with preincubation). After a predetermined time of a pre-reaction, a part is transferred to another plate, and 1/10 diluted by K-Pi buffer containing a substrate to initiate a reaction as a marker reaction. After a predetermined time of a reaction, methanol/acetonitrile=1/1 (V/V) solution is added to stop the reaction. Each plate where the marker reaction has been performed is centrifuged at 3000 rpm for 15 minutes. Then, midazolam 1-hydroxide in the centrifuged supernatant is quantified by LC/MS/MS.
Only DMSO which is a solvent dissolving the compound of the present invention added to a reaction system is adopted as a control (100%). Remaining activity (%) is calculated at each concentration of the compound of the present invention added. IC is calculated by reverse-presumption by a logistic model using a concentration and an inhibition rate. Shifted IC value is calculated as “IC of preincubation at 0 min/IC of preincubation at 30 min”. When a shifted IC is 1.5 or more, this is defined as positive. When a shifted IC is 1.0 or less, this is defined as negative.
Background: Liver microsomes are a subcellular fraction often used to study metabolism.

[2] abbreviates: read-out: human serotonin 5-HT2A receptor binding activity Ki.

human recombinant 5-HT2A receptor, sequence (P28223 whole entry): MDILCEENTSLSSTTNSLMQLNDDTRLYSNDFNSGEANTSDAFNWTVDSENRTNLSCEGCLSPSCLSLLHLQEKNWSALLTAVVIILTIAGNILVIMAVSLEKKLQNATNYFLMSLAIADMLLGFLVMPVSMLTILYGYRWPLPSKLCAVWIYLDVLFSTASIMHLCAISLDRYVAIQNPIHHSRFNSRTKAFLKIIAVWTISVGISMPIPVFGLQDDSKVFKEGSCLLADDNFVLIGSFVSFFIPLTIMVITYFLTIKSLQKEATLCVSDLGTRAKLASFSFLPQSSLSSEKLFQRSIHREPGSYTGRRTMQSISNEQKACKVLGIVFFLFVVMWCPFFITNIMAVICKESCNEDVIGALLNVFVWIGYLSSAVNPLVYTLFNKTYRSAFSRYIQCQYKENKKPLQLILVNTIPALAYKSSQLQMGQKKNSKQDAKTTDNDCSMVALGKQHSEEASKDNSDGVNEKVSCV
CYP3A4, sequence (P08684 whole entry): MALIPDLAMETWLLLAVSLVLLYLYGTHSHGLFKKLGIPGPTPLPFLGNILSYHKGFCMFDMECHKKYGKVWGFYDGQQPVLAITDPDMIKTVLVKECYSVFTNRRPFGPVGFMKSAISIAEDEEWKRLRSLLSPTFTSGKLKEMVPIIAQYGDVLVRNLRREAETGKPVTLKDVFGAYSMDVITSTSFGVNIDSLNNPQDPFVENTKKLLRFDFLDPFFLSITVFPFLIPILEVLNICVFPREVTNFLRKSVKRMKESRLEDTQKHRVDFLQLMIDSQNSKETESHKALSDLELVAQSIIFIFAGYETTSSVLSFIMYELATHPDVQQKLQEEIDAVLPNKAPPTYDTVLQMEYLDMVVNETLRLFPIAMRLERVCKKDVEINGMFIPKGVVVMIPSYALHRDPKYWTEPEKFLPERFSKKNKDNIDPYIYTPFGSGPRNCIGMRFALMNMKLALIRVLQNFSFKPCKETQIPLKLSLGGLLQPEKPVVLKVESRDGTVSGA

In the case of `CCCCOc1ccc(CN(Cc2coc(C)n2)C2=NOC3(CCN(C)CC3)N2)c(F)c1` [Compound I-114], the inhibitory constant (Ki) in data set [1] (setting [2]) was 0.74 nM. Besides, the “CYP3A4 (MDZ) MBI (shifted IC)” value on CYP3A4 is “Negative (When a shifted IC is 1.0 or less, this is defined as negative)”.
Regarding `Cc1nc(CN(Cc2ccc(OCC(C)C)cc2F)C2=NOC3(CCN(C)CC3)N2)co1` [Compound I-128], the Ki in data set [1] (setting [2]) worked out at 1.36 nM. In addition, the “CYP3A4 (MDZ) MBI (shifted IC)” value on CYP3A4 is on record as “Negative (When a shifted IC is 1.0 or less, this is defined as negative)”.
On to `CCCCOc1ccc(CN(Cc2coc(C)n2)C2=NOC3(CCN(C)CC3)N2)cc1F` [Compound I-115], for which, in data set [1] (setting [2]), the Ki amounted to 0.703 nM. Also, the “CYP3A4 (MDZ) MBI (shifted IC)” value at CYP3A4 is “Negative (When a shifted IC is 1.0 or less, this is defined as negative)”.
For the compound `CC(C)COc1ccc(CN(Cc2coc(CF)n2)C2=NOC3(CCN(C)CC3)N2)cc1` [Compound I-067], the inhibition constant Ki in data set [1] (read-out: h-5-HT2A Ki) is less than 10 nM; in data set [1] (setting [2]), 1.37 nM. The “CYP3A4 (MDZ) MBI (shifted IC)” value on CYP3A4 is listed as “Negative (When a shifted IC is 1.0 or less, this is defined as negative)”.
Regarding `CCCCOc1ccc(CN(Cc2coc(C)n2)C2=NOC3(CCN(C)CC3)N2)cc1` [Compound I-080], the Ki in data set [1] (read-out: h-5-HT2A Ki) is less than 10 nM; in data set [1] (setting [2]), 0.823 nM. Moreover, the “CYP3A4 (MDZ) MBI (shifted IC)” value on CYP3A4 is reported as “Negative (When a shifted IC is 1.0 or less, this is defined as negative)”.
Turning to `CCCCOc1ccc(CN(Cc2coc(CF)n2)C2=NOC3(CCN(C)CC3)N2)cc1` [Compound I-105], the inhibition constant Ki in data set [1] (setting [2]) stood at 0.979 nM. The “CYP3A4 (MDZ) MBI (shifted IC)” value at CYP3A4 is given as “Negative (When a shifted IC is 1.0 or less, this is defined as negative)”.
For the compound `Cc1nc(CN(Cc2ccc(OCC(F)(F)C(F)(F)F)cc2F)C2=NOC3(CCN(C)CC3)N2)co1` [Compound I-104], the Ki in data set [1] (setting [2]) worked out at 1.56 nM. Also, at CYP3A4, the “CYP3A4 (MDZ) MBI (shifted IC)” value is recorded as “Negative (When a shifted IC is 1.0 or less, this is defined as negative)”.
For `CCCCOc1ccc(CN(Cc2cnn(C)n2)C2=NOC3(CCN(C)CC3)N2)cc1` [Compound I-113], in data set [1] (setting [2]), the Ki turned out to be 1.2 nM. In addition, the “CYP3A4 (MDZ) MBI (shifted IC)” value at CYP3A4 was “Negative (When a shifted IC is 1.0 or less, this is defined as negative)”.
As for `Cc1nc(CN(Cc2ccc(CCC(F)(F)F)cc2)C2=NOC3(CCN(C)CC3)N2)co1` [Compound I-125], the inhibition constant (Ki) in data set [1] (setting [2]) came out at 1.26 nM. On CYP3A4, the “CYP3A4 (MDZ) MBI (shifted IC)” value is “Negative (When a shifted IC is 1.0 or less, this is defined as negative)”.

Usually Ki stands for the equilibrium dissociation constant of an inhibitor or competing ligand from its target.
